Literature values in US20090012010A1, “Amino acid derivatives as calcium channel blockers” (Neuromed Phramaceuticals Ltd., priority 2007, published 2009).

System: T-type calcium channels

SMILES: COCC(=O)O[C@]1(CCN(C)CCCc2nc3ccccc3[nH]2)CCc2cc(F)ccc2[C@@H]1C(C)C [Mibefradil]
- fold selective for T-type over L-type channels: 10-30 fold
